Experimental data as given in PubChem BioAssay AID292 (DTP/NCI, 2004).
Values joined by “and” are separate entries in the source; they are usually repeats but may differ in a detail not shown here. Equal entries are not always repeated. Inconclusive results and toxic doses are left out.

Tested on: B6C3F1 mice, ip Sarcoma M5076, median survival T/C
Test: NCI In Vivo Anticancer Drug Screen. Data for tumor model Sarcoma M5076 (intraperitoneal) in B6C3F1 mice
Conditions: endpoint: median survival time, higher = longer survival
Procedure, shortened: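 Tumour cells were transplanted into mice, compound or vehicle was given, survival of both groups was followed, and the treated figure was expressed over the control figure.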

[1] = dose: 37.5 mg/kg/injection, schedule: Q04DX004 (ip), vehicle: saline with Tween-80
[2] = dose: 75.0 mg/kg/injection, schedule: Q04DX004 (ip), vehicle: saline with Tween-80
[3] = dose: 150.0 mg/kg/injection, schedule: Q04DX004 (ip), vehicle: saline with Tween-80
[4] = dose: 300.0 mg/kg/injection, schedule: Q04DX004 (ip), vehicle: saline with Tween-80
[5] = dose: 25.0 mg/kg/injection, schedule: Q04DX004 (ip), vehicle: saline with Tween-80
[6] = dose: 50.0 mg/kg/injection, schedule: Q04DX004 (ip), vehicle: saline with Tween-80
[7] = dose: 100.0 mg/kg/injection, schedule: Q04DX004 (ip), vehicle: saline with Tween-80
[8] = dose: 200.0 mg/kg/injection, schedule: Q04DX004 (ip), vehicle: saline with Tween-80
[9] = dose: 50.0 mg/kg/injection, schedule: Q04DX004 (ip), vehicle: Klucel (hydroxypropylcellulose) (HPC)
[10] = dose: 100.0 mg/kg/injection, schedule: Q04DX004 (ip), vehicle: Klucel (hydroxypropylcellulose) (HPC)
[11] = dose: 200.0 mg/kg/injection, schedule: Q04DX004 (ip), vehicle: Klucel (hydroxypropylcellulose) (HPC)
[12] = dose: 400.0 mg/kg/injection, schedule: Q04DX004 (ip), vehicle: Klucel (hydroxypropylcellulose) (HPC)
[13] = dose: 50.0 mg/kg/injection, schedule: Q04DX004 (ip), vehicle: saline
[14] = dose: 50.0 mg/kg/injection, schedule: Q04DX004 (ip), vehicle: suspension in saline
[15] = dose: 100.0 mg/kg/injection, schedule: Q04DX004 (ip), vehicle: saline
[16] = dose: 100.0 mg/kg/injection, schedule: Q04DX004 (ip), vehicle: suspension in saline
[17] = dose: 200.0 mg/kg/injection, schedule: Q04DX004 (ip), vehicle: saline
[18] = dose: 200.0 mg/kg/injection, schedule: Q04DX004 (ip), vehicle: suspension in saline
[19] = dose: 400.0 mg/kg/injection, schedule: Q04DX004 (ip), vehicle: suspension in saline
[20] = dose: 12.5 mg/kg/injection, schedule: Q04DX004 (ip), vehicle: saline with Tween-80
[21] = dose: 25.0 mg/kg/injection, schedule: Q04DX004 (ip), vehicle: Klucel (hydroxypropylcellulose) (HPC)
[22] = dose: 37.5 mg/kg/injection, schedule: Q04DX004 (ip), vehicle: Klucel (hydroxypropylcellulose) (HPC)
[23] = dose: 75.0 mg/kg/injection, schedule: Q04DX004 (ip), vehicle: Klucel (hydroxypropylcellulose) (HPC)
[24] = dose: 150.0 mg/kg/injection, schedule: Q04DX004 (ip), vehicle: Klucel (hydroxypropylcellulose) (HPC)
[25] = dose: 300.0 mg/kg/injection, schedule: Q04DX004 (ip), vehicle: Klucel (hydroxypropylcellulose) (HPC)
[26] = dose: 600.0 mg/kg/injection, schedule: Q04DX004 (ip), vehicle: Klucel (hydroxypropylcellulose) (HPC)
[27] = dose: 12.5 mg/kg/injection, schedule: Q04DX004 (ip), vehicle: saline
[28] = dose: 25.0 mg/kg/injection, schedule: Q04DX004 (ip), vehicle: saline
[29] = dose: 400.0 mg/kg/injection, schedule: Q04DX004 (ip), vehicle: saline

## Cc1[nH]c(=O)[nH]c(=O)c1CCSSCCc1c(C)[nH]c(=O)[nH]c1=O
[1]
  T/C: 90 % of control
[2]
  T/C: 86 % of control
[3]
  T/C: 89 % of control
[4]
  T/C: 86 % of control
dose: 600.0 mg/kg/injection, schedule: Q04DX004 (ip), vehicle: saline with Tween-80
  T/C: 90 % of control

## COc1cc2c(c3c1/c(=N/N(C)C)c1ccccc1n3C)C=CC(C)(C)O2
[5]
  T/C: 110 % of control
[6]
  T/C: 105 % of control
[7]
  T/C: 110 % of control
[8]
  T/C: 110 % of control

## CCOC(=O)C1=C(C)O/C(=C/c2cccc(Cl)c2)C1=O
[7]
  T/C: 99 % of control
[8]
  T/C: 100 % of control
dose: 400.0 mg/kg/injection, schedule: Q04DX004 (ip), vehicle: saline with Tween-80
  T/C: 93 % of control

## CN1C(=O)OC(c2ccc(Cl)cc2)C1=O (stereo unspecified)
[9]
  T/C: 92 % of control
[10]
  T/C: 93 % of control
[11]
  T/C: 94 % of control
[12]
  T/C: 97 % of control

## CC#CCOCC(O)CCl (stereo unspecified)
[13]
  T/C: 99 % of control
[14]
  T/C: 102 % of control
[15]
  T/C: 98 % of control
[16]
  T/C: 102 % of control
[17]
  T/C: 103 % of control
[18]
  T/C: 102 % of control
[19]
  T/C: 100 % of control

## c1ccc2c(c1)oc1cc3c(cc12)ncc1cccn13
dose: 6.25 mg/kg/injection, schedule: Q04DX004 (ip), vehicle: saline with Tween-80
  T/C: 95 % of control
[20]
  T/C: 90 % of control
[5]
  T/C: 91 % of control

## [N-]=[N+]=CC(=O)CCC(NC(=O)OCc1ccccc1)C(=O)OCc1ccccc1 (stereo unspecified)
[21]
  T/C: 113 % of control
[9]
  T/C: 115 % of control
[10]
  T/C: 121 % of control
[11]
  T/C: 121 % of control

## N#CC1C(=O)NC(=S)NC1c1ccc(Cl)c(Cl)c1 (stereo unspecified)
[22]
  T/C: 94 % of control
[23]
  T/C: 99 % of control
[24]
  T/C: 97 % of control
[25]
  T/C: 91 % of control
[26]
  T/C: 89 % of control

## O=C1N[C@@H]2C(=C[C@H](O)[C@@H](O)[C@H]2O)c2cc3c(c(O)c21)OCO3
dose: 0.38 mg/kg/injection, schedule: Q01DX009 (ip), vehicle: saline with Tween-80
  T/C: 111 % of control
dose: 0.38 mg/kg/injection, schedule: Q04DX004 (ip), vehicle: saline with Tween-80
  T/C: 91 % of control
dose: 0.75 mg/kg/injection, schedule: Q04DX004 (ip), vehicle: saline with Tween-80
  T/C: 102 % of control and 110 % of control
dose: 1.5 mg/kg/injection, schedule: Q01DX009 (ip), vehicle: saline with Tween-80
  T/C: 123 % of control
dose: 1.5 mg/kg/injection, schedule: Q04DX004 (ip), vehicle: saline with Tween-80
  T/C: 96 % of control and 119 % of control
dose: 3.0 mg/kg/injection, schedule: Q04DX004 (ip), vehicle: saline with Tween-80
  T/C: 107 % of control

## CCNc1nc(NC(C)C)nc(-c2ccncc2)n1
[21]
  T/C: 93 % of control
[9]
  T/C: 95 % of control
[10]
  T/C: 95 % of control
[11]
  T/C: 95 % of control

## COC1=CC(=O)C(OC)=C(OC)C1=O
dose: 18.75 mg/kg/injection, schedule: Q04DX004 (ip), vehicle: saline with Tween-80
  T/C: 95 % of control
[1]
  T/C: 95 % of control
[2]
  T/C: 99 % of control
[3]
  T/C: 97 % of control
[4]
  T/C: 93 % of control

## CCOC(=O)Nc1cc(NC(C)/C(=N/O)c2ccccc2)c([N+](=O)[O-])c(N)n1 (stereo unspecified)
[9]
  T/C: 99 % of control and 100 % of control
[10]
  T/C: 109 % of control and 123 % of control
dose: 172.8 mg/kg/injection, schedule: Q04DX004 (ip), vehicle: Klucel (hydroxypropylcellulose) (HPC)
  T/C: 107 % of control
dose: 288.0 mg/kg/injection, schedule: Q04DX004 (ip), vehicle: Klucel (hydroxypropylcellulose) (HPC)
  T/C: 119 % of control
[12]
  T/C: 156 % of control
dose: 13333.3 mg/kg/injection, schedule: Q04DX004 (ip), vehicle: Klucel (hydroxypropylcellulose) (HPC)
  T/C: 119 % of control

## CCOC(=O)/C=C1/SC(N2CCCCC2)C(=O)N1CC (stereo unspecified)
[9]
  T/C: 96 % of control
[10]
  T/C: 96 % of control
[11]
  T/C: 97 % of control
[12]
  T/C: 94 % of control

## N#Cc1ccc(NN=O)nc1
dose: 6.25 mg/kg/injection, schedule: Q04DX004 (ip), vehicle: water
  T/C: 124 % of control
dose: 6.5 mg/kg/injection, schedule: Q04DX004 (ip), vehicle: water
  T/C: 116 % of control
dose: 25.0 mg/kg/injection, schedule: Q04DX004 (ip), vehicle: water
  T/C: 152 % of control
dose: 50.0 mg/kg/injection, schedule: Q04DX004 (ip), vehicle: water
  T/C: 160 % of control and 177 % of control
dose: 83.0 mg/kg/injection, schedule: Q04DX004 (ip), vehicle: water
  T/C: 182 % of control
dose: 100.0 mg/kg/injection, schedule: Q04DX004 (ip), vehicle: water
  T/C: 118 % of control
dose: 139.0 mg/kg/injection, schedule: Q04DX004 (ip), vehicle: water
  T/C: 200 % of control

## CSC1=NCc2c(sc3c2CCCC3)N1
[22]
  T/C: 98 % of control
[23]
  T/C: 103 % of control
[24]
  T/C: 99 % of control
[25]
  T/C: 102 % of control

## COc1cc(C2=NCCc3cc4c(cc32)OCO4)cc(OC)c1OC
[27]
  T/C: 106 % of control
[28]
  T/C: 106 % of control
[13]
  T/C: 106 % of control
[15]
  T/C: 110 % of control

## CN(C)C=O
dose: 10.0 mg/kg/injection, schedule: Q04DX004 (ip), vehicle: saline
  T/C: 104 % of control
dose: 20.0 mg/kg/injection, schedule: Q04DX004 (ip), vehicle: saline
  T/C: 111 % of control
dose: 40.0 mg/kg/injection, schedule: Q04DX004 (ip), vehicle: saline
  T/C: 104 % of control
dose: 80.0 mg/kg/injection, schedule: Q04DX004 (ip), vehicle: saline
  T/C: 100 % of control
[15]
  T/C: 103 % of control
dose: 160.0 mg/kg/injection, schedule: Q04DX004 (ip), vehicle: saline
  T/C: 104 % of control
[17]
  T/C: 107 % of control
[29]
  T/C: 100 % of control
dose: 800.0 mg/kg/injection, schedule: Q04DX004 (ip), vehicle: saline
  T/C: 107 % of control
dose: 1600.0 mg/kg/injection, schedule: Q04DX004 (ip), vehicle: saline
  T/C: 108 % of control

## O=C(Nc1cccc(C(F)(F)F)c1)C(Cl)=C(Cl)Cl
[22]
  T/C: 95 % of control
[23]
  T/C: 103 % of control
[24]
  T/C: 102 % of control
[25]
  T/C: 102 % of control
[26]
  T/C: 87 % of control

## O=C(O)C1CC(O)CN1 (stereo unspecified)
[14]
  T/C: 110 % of control
[16]
  T/C: 103 % of control
[18]
  T/C: 97 % of control
[19]
  T/C: 102 % of control
dose: 800.0 mg/kg/injection, schedule: Q04DX004 (ip), vehicle: suspension in saline
  T/C: 100 % of control

## N[C@@H](C[C@H]1CCC(=O)[C@@H]2O[C@H]12)C(=O)O
[13]
  T/C: 97 % of control
[15]
  T/C: 106 % of control
[17]
  T/C: 117 % of control
[29]
  T/C: 115 % of control

## O=C(Nc1ccc2ccccc2c1)C1C(=O)C(=O)N(c2ccc3ccccc3c2)C1=O (stereo unspecified)
[9]
  T/C: 100 % of control
[10]
  T/C: 100 % of control
[11]
  T/C: 93 % of control

## O=c1[nH]cc(F)c(=O)[nH]1
[27]
  T/C: 104 % of control and 122 % of control
[28]
  T/C: 111 % of control and 120 % of control

## O=C1C2CC3CC1CC(Cl)(C3)C2
[20]
  T/C: 105 % of control
[5]
  T/C: 99 % of control
[6]
  T/C: 94 % of control

## Cn1[nH]c2[nH]c(=S)sc(=S)c2c1=O
[21]
  T/C: 100 % of control
[9]
  T/C: 94 % of control
[10]
  T/C: 95 % of control
[11]
  T/C: 94 % of control
[12]
  T/C: 95 % of control

## CNC(=O)c1ccccc1CNC(=S)Nc1cccc(C)c1
[22]
  T/C: 92 % of control
[23]
  T/C: 102 % of control
[24]
  T/C: 99 % of control
[25]
  T/C: 102 % of control
